Experimental data reported in US12723063B2, “GIPR-agonist compounds” (Eli Lilly and Company, priority 2019, dated 2026).
*1 amine or outer side, *2 acyl side, *3 side chain or, on linkers, in order; H or OH if unused. Where a SMILES comes first, the peptide text is derived from it. Side-chain parts run from the residue outwards. [ ]: non-standard residue; d: D form. The star is where a group is joined. C20 diacid = O=C(O)CCCCCCCCCCCCCCCCCCC(=O)*; αMePhe(2-F) = C[C@](N)(Cc1ccccc1F)C(=O)O; γGlu = O=C(O)[C@H](CCC(=O)[*:2])N[*:1]; 4Pal = N[C@@H](Cc1ccncc1)C(=O)O; αMeL = CC(C)C[C@](C)(N)C(=O)O; AEEA = NCCOCCOCC(=O)O; Aib = CC(C)(N)C(=O)O

Assays:
Assay in all cases: cAMP functional assay (HTRF) in HEK293 cells in presence of 0.1% casein
Assay type in all cases: cell-based
[1] = molecular target: T1, human GLP-1 receptor (GLP-1R) (Homo sapiens, UniProt P43220); conditions: HEK293 cells expressing human GLP-1R, geometric mean, read-out: hGLP1R cAMP Rel EC50 nM (SEM, n)
T1 construct: expressed in transfected cells; host or cells: HEK293
T1 sequence (P43220 24-463): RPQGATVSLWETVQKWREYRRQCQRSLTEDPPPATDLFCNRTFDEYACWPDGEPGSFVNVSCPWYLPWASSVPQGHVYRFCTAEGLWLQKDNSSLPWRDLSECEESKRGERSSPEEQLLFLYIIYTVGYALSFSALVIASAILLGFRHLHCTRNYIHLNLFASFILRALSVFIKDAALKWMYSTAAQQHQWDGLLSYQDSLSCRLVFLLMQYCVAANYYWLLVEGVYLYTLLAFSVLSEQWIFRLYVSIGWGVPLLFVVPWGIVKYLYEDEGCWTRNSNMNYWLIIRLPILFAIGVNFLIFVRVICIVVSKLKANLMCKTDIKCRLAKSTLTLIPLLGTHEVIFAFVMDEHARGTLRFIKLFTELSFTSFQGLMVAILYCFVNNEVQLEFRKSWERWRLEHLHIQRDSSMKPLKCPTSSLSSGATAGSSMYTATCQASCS

[2] = molecular target: T2, human glucagon receptor (GcgR) (Homo sapiens, UniProt P47871); conditions: HEK293 cells expressing human GcgR, geometric mean, read-out: hGcgR cAMP Rel EC50 nM (SEM, n)
T2 construct: expressed in transfected cells; host or cells: HEK293
T2 sequence (P47871 26-477): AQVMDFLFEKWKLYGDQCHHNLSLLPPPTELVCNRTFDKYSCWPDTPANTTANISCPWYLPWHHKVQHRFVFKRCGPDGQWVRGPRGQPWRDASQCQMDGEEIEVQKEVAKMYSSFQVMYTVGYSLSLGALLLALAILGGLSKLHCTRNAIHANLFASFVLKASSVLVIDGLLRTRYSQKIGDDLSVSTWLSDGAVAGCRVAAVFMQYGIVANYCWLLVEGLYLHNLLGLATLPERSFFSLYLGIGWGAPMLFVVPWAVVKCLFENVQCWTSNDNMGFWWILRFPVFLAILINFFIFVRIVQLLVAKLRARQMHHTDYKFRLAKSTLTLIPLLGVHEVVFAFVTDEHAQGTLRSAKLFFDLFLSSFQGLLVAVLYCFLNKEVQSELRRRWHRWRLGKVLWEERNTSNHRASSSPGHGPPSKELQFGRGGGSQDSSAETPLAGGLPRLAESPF

[3] = molecular target: T3, human glucose-dependent insulinotropic peptide receptor (GIPR) (Homo sapiens, UniProt P48546); conditions: HEK293 cells expressing human GIPR, geometric mean, read-out: hGIPR cAMP Rel EC50 nM (SEM, n)
T3 construct: expressed in transfected cells; host or cells: HEK293
T3 sequence (P48546 22-466): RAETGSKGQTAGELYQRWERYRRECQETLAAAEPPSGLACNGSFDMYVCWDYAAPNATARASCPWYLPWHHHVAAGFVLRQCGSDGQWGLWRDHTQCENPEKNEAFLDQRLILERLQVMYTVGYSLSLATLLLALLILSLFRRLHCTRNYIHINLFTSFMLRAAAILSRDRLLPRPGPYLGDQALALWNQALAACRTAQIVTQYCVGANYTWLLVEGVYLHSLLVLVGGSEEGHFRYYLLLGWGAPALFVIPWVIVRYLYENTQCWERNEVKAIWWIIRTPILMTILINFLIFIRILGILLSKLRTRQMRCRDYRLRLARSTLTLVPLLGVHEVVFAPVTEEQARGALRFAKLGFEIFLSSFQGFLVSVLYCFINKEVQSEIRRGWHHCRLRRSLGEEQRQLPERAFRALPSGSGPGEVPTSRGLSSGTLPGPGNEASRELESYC

SMILES	EC50 [1] [nM]	EC50 [2] [nM]	EC50 [3] [nM]
CC[C@H](C)[C@H](NC(=O)[C@H](Cc1ccccc1)NC(=O)[C@@H](NC(=O)CNC(=O)[C@H](CCC(=O)O)NC(=O)C(C)(C)NC(=O)[C@@H](N)Cc1ccc(O)cc1)[C@@H](C)O)C(=O)N[C@@H](CO)C(=O)N[C@@H](CC(=O)O)C(=O)N[C@@H](Cc1ccc(O)cc1)C(=O)N[C@@H](CO)C(=O)N[C@H](C(=O)N[C@@](C)(CC(C)C)C(=O)N[C@@H](CC(C)C)C(=O)N[C@@H](CC(=O)O)C(=O)N[C@@H](CCCCN)C(=O)N[C@@H](CCCCNC(=O)COCCOCCNC(=O)COCCOCCNC(=O)CC[C@H](NC(=O)CCCCCCCCCCCCCCCCCCC(=O)O)C(=O)O)C(=O)N[C@@H](Cc1c[nH]cn1)C(=O)N[C@@H](CCC(N)=O)C(=O)NC(C)(C)C(=O)N[C@@H](CC(=O)O)C(=O)N[C@@H](Cc1ccccc1)C(=O)N[C@H](C(=O)N[C@@H](CCC(=O)O)C(=O)N[C@@H](Cc1ccc(O)cc1)C(=O)N[C@@H](CC(C)C)C(=O)N[C@@H](CC(C)C)C(=O)N[C@@H](CCC(=O)O)C(=O)N[C@@H](C)C(=O)NCC(=O)N1CCC[C@H]1C(=O)N[C@@H](CO)C(=O)N[C@@H](CO)C(=O)NCC(=O)N[C@@H](C)C(=O)N1CCC[C@H]1C(=O)N1CCC[C@H]1C(=O)N1CCC[C@H]1C(=O)N[C@@H](CO)C(N)=O)C(C)C)[C@@H](C)CC [Example 68] (H-Y[Aib]EGTFISDYSI[αMeL]LDKK([AEEA-AEEA-γGlu-C20 diacid])HQ[Aib]DFVEYLLEAGPSSGAPPPS-NH2)	> 5000	3030	0.0768
CC[C@H](C)[C@H](NC(=O)[C@H](Cc1ccccc1)NC(=O)[C@@H](NC(=O)CNC(=O)[C@H](CCC(=O)O)NC(=O)C(C)(C)NC(=O)[C@@H](N)Cc1ccc(O)cc1)[C@@H](C)O)C(=O)N[C@@H](CO)C(=O)N[C@@H](CC(=O)O)C(=O)N[C@@H](Cc1ccc(O)cc1)C(=O)N[C@@H](CO)C(=O)N[C@H](C(=O)N[C@@](C)(CC(C)C)C(=O)N[C@@H](CC(C)C)C(=O)N[C@@H](CC(=O)O)C(=O)N[C@@H](CCCCN)C(=O)N[C@@H](CCCCNC(=O)COCCOCCNC(=O)COCCOCCNC(=O)CC[C@H](NC(=O)CCCCCCCCCCCCCCCCCCC(=O)O)C(=O)O)C(=O)N[C@@H](Cc1c[nH]cn1)C(=O)N[C@@H](CCC(N)=O)C(=O)NC(C)(C)C(=O)N[C@@H](CCC(=O)O)C(=O)N[C@@H](Cc1ccccc1)C(=O)N[C@H](C(=O)N[C@@H](CCC(=O)O)C(=O)N[C@@H](Cc1ccncc1)C(=O)N[C@@H](CC(C)C)C(=O)N[C@@H](CC(C)C)C(=O)N[C@@H](C)C(=O)N[C@@H](C)C(=O)NCC(=O)N1CCC[C@H]1C(=O)N[C@@H](CO)C(=O)N[C@@H](CO)C(=O)NCC(=O)N[C@@H](C)C(=O)N1CCC[C@H]1C(=O)N1CCC[C@H]1C(=O)N1CCC[C@H]1C(=O)N[C@@H](CO)C(N)=O)C(C)C)[C@@H](C)CC [Example 59]	> 5000	> 5000	0.0202
CC[C@H](C)[C@H](NC(=O)[C@H](CO)NC(=O)[C@H](Cc1ccc(O)cc1)NC(=O)[C@H](CC(=O)O)NC(=O)[C@H](CO)NC(=O)[C@@H](NC(=O)[C@](C)(Cc1ccccc1F)NC(=O)[C@@H](NC(=O)CNC(=O)[C@H](CCC(=O)O)NC(=O)C(C)(C)NC(=O)[C@@H](N)Cc1ccc(O)cc1)[C@@H](C)O)[C@@H](C)CC)C(=O)N[C@@H](C)C(=O)N[C@@H](CC(C)C)C(=O)N[C@@H](CC(=O)O)C(=O)N[C@@H](CCCCN)C(=O)N[C@@H](CCCCNC(=O)COCCOCCNC(=O)COCCOCCNC(=O)CC[C@H](NC(=O)CCCCCCCCCCCCCCCCCCC(=O)O)C(=O)O)C(=O)N[C@@H](Cc1c[nH]cn1)C(=O)N[C@@H](CCC(N)=O)C(=O)NC(C)(C)C(=O)N[C@@H](CC(=O)O)C(=O)N[C@@H](Cc1ccccc1)C(=O)N[C@H](C(=O)N[C@@H](CCC(=O)O)C(=O)N[C@@H](Cc1c[nH]c2ccccc12)C(=O)N[C@@H](CC(C)C)C(=O)N[C@@H](CC(C)C)C(=O)N[C@@H](CCC(=O)O)C(=O)N[C@H](C(=O)NCC(=O)N1CCC[C@H]1C(=O)N[C@@H](CO)C(=O)N[C@@H](CO)C(=O)NCC(=O)N[C@@H](C)C(=O)N1CCC[C@H]1C(=O)N1CCC[C@H]1C(=O)N1CCC[C@H]1C(=O)N[C@@H](CO)C(N)=O)[C@@H](C)O)C(C)C [Example 40] (H-Y[Aib]EGT[αMePhe(2-F)]ISDYSIALDKK([AEEA-AEEA-γGlu-C20 diacid])HQ[Aib]DFVEWLLETGPSSGAPPPS-NH2)	2330	> 5000	0.033
CC[C@H](C)[C@H](NC(=O)[C@H](Cc1ccccc1)NC(=O)[C@@H](NC(=O)CNC(=O)[C@H](CCC(=O)O)NC(=O)C(C)(C)NC(=O)[C@@H](N)Cc1ccc(O)cc1)[C@@H](C)O)C(=O)N[C@@H](CO)C(=O)N[C@@H](CC(=O)O)C(=O)N[C@@H](Cc1ccc(O)cc1)C(=O)N[C@@H](CO)C(=O)N[C@H](C(=O)N[C@@](C)(CC(C)C)C(=O)N[C@@H](CC(C)C)C(=O)N[C@@H](CC(=O)O)C(=O)N[C@@H](CCCCN)C(=O)N[C@@H](CCCCNC(=O)COCCOCCNC(=O)COCCOCCNC(=O)CC[C@H](NC(=O)CCCCCCCCCCCCCCCCCCC(=O)O)C(=O)O)C(=O)N[C@@H](Cc1c[nH]cn1)C(=O)N[C@@H](CCC(N)=O)C(=O)NC(C)(C)C(=O)N[C@@H](CCC(=O)O)C(=O)N[C@@H](Cc1ccccc1)C(=O)N[C@H](C(=O)N[C@@H](CCC(=O)O)C(=O)N[C@@H](Cc1ccc(O)cc1)C(=O)N[C@@H](CC(C)C)C(=O)N[C@@H](CC(C)C)C(=O)N[C@@H](CCC(=O)O)C(=O)N[C@@H](CCC(N)=O)C(=O)NCC(=O)N1CCC[C@H]1C(=O)N[C@@H](CO)C(=O)N[C@@H](CO)C(=O)NCC(=O)N[C@@H](C)C(=O)N1CCC[C@H]1C(=O)N1CCC[C@H]1C(=O)N1CCC[C@H]1C(=O)N[C@@H](CO)C(N)=O)C(C)C)[C@@H](C)CC [Example 63] (H-Y[Aib]EGTFISDYSI[αMeL]LDKK([AEEA-AEEA-γGlu-C20 diacid])HQ[Aib]EFVEYLLEQGPSSGAPPPS-NH2)	> 5000	1170	0.0398
CC[C@H](C)[C@H](NC(=O)[C@H](CO)NC(=O)[C@H](Cc1ccc(O)cc1)NC(=O)[C@H](CC(=O)O)NC(=O)[C@H](CO)NC(=O)[C@@H](NC(=O)[C@](C)(Cc1ccccc1F)NC(=O)[C@@H](NC(=O)CNC(=O)[C@H](CCC(=O)O)NC(=O)C(C)(C)NC(=O)[C@@H](N)Cc1ccc(O)cc1)[C@@H](C)O)[C@@H](C)CC)C(=O)N[C@@H](C)C(=O)N[C@@H](CC(C)C)C(=O)N[C@@H](CC(=O)O)C(=O)N[C@@H](CCCCN)C(=O)N[C@@H](CCCCNC(=O)COCCOCCNC(=O)COCCOCCNC(=O)CC[C@H](NC(=O)CCCCCCCCCCCCCCCCCCC(=O)O)C(=O)O)C(=O)N[C@@H](Cc1c[nH]cn1)C(=O)N[C@@H](CCC(N)=O)C(=O)NC(C)(C)C(=O)N[C@@H](CC(=O)O)C(=O)N[C@@H](Cc1ccccc1)C(=O)N[C@H](C(=O)N[C@@H](CCC(=O)O)C(=O)N[C@@H](Cc1ccncc1)C(=O)N[C@@H](CC(C)C)C(=O)N[C@@H](CC(C)C)C(=O)N[C@@H](CCC(=O)O)C(=O)N[C@H](C(=O)NCC(=O)N1CCC[C@H]1C(=O)N[C@@H](CO)C(=O)N[C@@H](CO)C(=O)NCC(=O)N[C@@H](C)C(=O)N1CCC[C@H]1C(=O)N1CCC[C@H]1C(=O)N1CCC[C@H]1C(=O)N[C@@H](CO)C(N)=O)[C@@H](C)O)C(C)C [Example 38] (H-Y[Aib]EGT[αMePhe(2-F)]ISDYSIALDKK([AEEA-AEEA-γGlu-C20 diacid])HQ[Aib]DFVE[4Pal]LLETGPSSGAPPPS-NH2)	1390	> 5000	0.0368
CC[C@H](C)[C@H](NC(=O)[C@H](Cc1ccccc1)NC(=O)[C@@H](NC(=O)CNC(=O)[C@H](CCC(=O)O)NC(=O)C(C)(C)NC(=O)[C@@H](N)Cc1ccc(O)cc1)[C@@H](C)O)C(=O)N[C@@H](CO)C(=O)N[C@@H](CC(=O)O)C(=O)N[C@@H](Cc1ccc(O)cc1)C(=O)N[C@@H](CO)C(=O)N[C@H](C(=O)N[C@@](C)(CC(C)C)C(=O)N[C@@H](CC(C)C)C(=O)N[C@@H](CC(=O)O)C(=O)N[C@@H](CCCCN)C(=O)N[C@@H](CCCCNC(=O)COCCOCCNC(=O)COCCOCCNC(=O)CC[C@H](NC(=O)CCCCCCCCCCCCCCCCCCC(=O)O)C(=O)O)C(=O)N[C@@H](Cc1c[nH]cn1)C(=O)N[C@@H](CCC(N)=O)C(=O)NC(C)(C)C(=O)N[C@@H](CCC(=O)O)C(=O)N[C@@H](Cc1ccccc1)C(=O)N[C@H](C(=O)N[C@@H](CCC(=O)O)C(=O)N[C@@H](Cc1ccc(O)cc1)C(=O)N[C@@H](CC(C)C)C(=O)N[C@@H](CC(C)C)C(=O)N[C@@H](CCC(=O)O)C(=O)N[C@@H](C)C(=O)NCC(=O)N1CCC[C@H]1C(=O)N[C@@H](CO)C(=O)N[C@@H](CO)C(=O)NCC(=O)N[C@@H](C)C(=O)N1CCC[C@H]1C(=O)N1CCC[C@H]1C(=O)N1CCC[C@H]1C(=O)N[C@@H](CO)C(N)=O)C(C)C)[C@@H](C)CC [Example 65] (H-Y[Aib]EGTFISDYSI[αMeL]LDKK([AEEA-AEEA-γGlu-C20 diacid])HQ[Aib]EFVEYLLEAGPSSGAPPPS-NH2)	> 5000	850	0.0346
